Measurements from US9446017B2, “Compositions and methods for treating herpes simplex virus” (Augusta University Research Institute, Inc., priority 2005, dated 2016).
“And” between values parts separate entries of the source, which are not always exact repeats. Identical values can stand only once. “Also recorded” adds a separate entry of the source.

Legend:
Vero cells [1] = assay: Cell proliferation assay (MTS tetrazolium, absorbance 490 nm); type: cell-based, green monkey; conditions: for absorbance at 490 nm (single reading): 1 hour, read 24 hours later; for inhibition of cell proliferation: up to 75 μM, compared to controls
Experimental: A cell proliferation kit (G5421, Promega Corp.) was used. This is a colorimetric method for determining cell proliferation. This kit contains a tetrazolium compound and an electron-coupling reagent (phenazine methosulfate). Only live cells will be able to bioreduce the tetrazolium compound into soluble formazan. Thus, the amount of formazan formed and measured at 490 nm absorbance is directly proportional to the number of live cells. Cells were plated into 96 well plates and after 24 hrs they were treated with different concentrations (12.5, 25, 50, 75, 100 μM) of polyphenols and allowed to adsorb for 1 hour. Polyphenols were then aspirated and 100 μL of fresh DMEM was added back to each well. 24 hours later, 20 μL of the MTS reagent was added to every 100 μL of cells in media. The plates were incubated at 37° C. and 5% CO2 for 4 hours, and then the absorbance was read using a plate reader. […] In this study, cell proliferation was examined under the same conditions as described before. Each experiment was assayed in triplicates, and absorbance of this colorimetric assay was recorded at 490 nm using a 96 well ELISA plate reader.

Vero cells [2] = assay: Cytotoxicity assay, morphological and proliferation changes by microscope; type: cell-based, green monkey; conditions: for change of cell morphology: 12.5 to 75 μM; for maximum nontoxic concentration: Vero cells; for effect on the cells: higher concentration
Experimental: Cells were studied for morphological and proliferation changes 48 hrs later using an ACCU-Scope 3002 microscope with a camera attached. […] Cells were studied for morphological and proliferation changes 24 hrs later using an ACCU-Scope 3002 microscope with a camera attached. In order to determine the proper concentrations of EGCG and EGCG-ester to be used for treating HSV1, the effect of polyphenols on the cells were studied. […] In this experiment, the polyphenols were added at the same time as the cells were plated and were not removed subsequently. The effect of different concentrations of EGCG-ester on Vero cells was also observed at 24 hrs. […] EGCG-ester was then aspired, and cells were observed 24 hours later.

Vero cells [3] = assay: Cell viability assay, trypan blue and hemocytometer direct cell count; conditions: for Dead cells / Live cells: FIG. 1 axis Vero cells/ml
Experimental: Vero cells were plated in 6 well plates and after a period of 24 hours different concentrations of EGCG or EGCG-ester (12.5, 25, 50, 75, 100 μM) were added to each well, respectively. After one hour, the polyphenols were aspirated and the cells were washed with PBS. DMEM media was put back into each well and cells were incubated for 24 hrs. Cells were then counted using a hemocytometer and trypan blue which stains the dead cells blue and leaves the live cells white.
The cell viability was determined by using trypan blue and hemacytometer direct cell count to detect the effect of EGCG-ester on Vero cells.

HSV1 = assay: Viral titer study using plaque assay, HSV virions pre-treated with polyphenol, Vero cells; type: cell-based
Experimental: Vero cells were plated on 6 well plates and allowed to reach confluence. HSV virions were treated for 1 hour with the respective concentration of polyphenols (12.5, 25, 50, 75, 100 μM) prior to cell infection. Cells were then infected with HSV and allowed to adsorb for 1 hour. Viruses that had not been absorbed were then aspirated. Plates were then overlaid with a nutrient medium-containing agar. Plaques were visualized by staining cells with crystal violet, observed, and counted within 50 hours.
Viral titer was determined to study the effect of 50 μM of EGCG and EGCG-ester on the viral particle production by using plaque assay. Serial dilutions of viral lysates were performed from 10^−1 to 10^−7 and cells were then infected respectively with the dilutions.
In order to obtain the minimum inhibitory concentration of EGCG-ester on HSV1, different concentrations (12.5, 25, 50, 75 μM) of EGCG-ester were used at lower dilution of viral lysate (10^−1 and 10^−2).

[4] = 100 μM, Vero cells, replicate counts

O=C(O[C@@H]1Cc2c(O)cc(O)cc2O[C@@H]1c1cc(O)c(O)c(O)c1)c1cc(O)c(O)c(O)c1 [EGCG, (−)-epigallocatechin-3-gallate, reference compound]
absorbance at 490 nm, Mean (Vero cells [1]; 12.5 μM): 0.607 | absorbance at 490 nm (single reading) (Vero cells [1]; 12.5 μM): 0.615 and 0.606 and 0.601 | absorbance at 490 nm, Mean (Vero cells [1]; 25 μM): 0.621 | absorbance at 490 nm (single reading) (Vero cells [1]; 25 μM): 0.628 and 0.620 and 0.616 | absorbance at 490 nm, Mean (Vero cells [1]; 50 μM): 0.603 | absorbance at 490 nm (single reading) (Vero cells [1]; 50 μM): 0.632 and 0.587 and 0.589 | absorbance at 490 nm, Mean (Vero cells [1]; 75 μM): 0.647 | absorbance at 490 nm (single reading) (Vero cells [1]; 75 μM): 0.645 and 0.652 | absorbance at 490 nm, Mean (Vero cells [1]; 100 μM): 0.698 | absorbance at 490 nm (single reading) (Vero cells [1]; 100 μM): 0.688 and 0.677 and 0.730 | inhibition of cell proliferation (Vero cells [1]): not inhibiting cell proliferation to a great extent | morphological changes (Vero cells [2]; 12.5-100 μM, added when cells were plated, not removed, observed at 48 hrs): no morphological changes | change of cell morphology (Vero cells [2]): do not induce a change cell morphology | maximum nontoxic concentration (Vero cells [2]): 75 µM | effect on the cells (Vero cells [2]): not significantly affected | Cells (Vero cells [3]; [4]): 167 and 292 and 347 | Cells dead (Vero cells [3]; [4]): 119 and 134 and 184 | fold decrease in titer / plaque formation vs HSV1/Vero (HSV1; 50 μM): 10 fold | viral titer (HSV1; HSV1 treated with 50 μM polyphenol before infection of Vero cells): 1×10^5 PFU/ml

CCCCCCCCCCCCCCCC(=O)Oc1c(O)cc([C@H]2Oc3cc(O)cc(O)c3C[C@H]2OC(=O)c2cc(O)c(O)c(O)c2)cc1O [EGCG-ester]
absorbance at 490 nm, Mean (Vero cells [1]; 12.5 μM): 0.627 | absorbance at 490 nm (single reading) (Vero cells [1]; 12.5 μM): 0.642 and 0.647 and 0.574 | absorbance at 490 nm, Mean (Vero cells [1]; 25 μM): 0.647 | absorbance at 490 nm (single reading) (Vero cells [1]; 25 μM): 0.668 and 0.651 and 0.621 | absorbance at 490 nm, Mean (Vero cells [1]; 50 μM): 0.676 | absorbance at 490 nm (single reading) (Vero cells [1]; 50 μM): 0.663 and 0.698 and 0.667 | absorbance at 490 nm, Mean (Vero cells [1]; 75 μM): 0.653 | absorbance at 490 nm (single reading) (Vero cells [1]; 75 μM): 0.582 and 0.689 and 0.687 | absorbance at 490 nm, Mean (Vero cells [1]; 100 μM): 0.717 | absorbance at 490 nm (single reading) (Vero cells [1]; 100 μM): 0.691 and 0.741 and 0.719 | inhibition of cell proliferation (Vero cells [1]): not inhibiting cell proliferation to a great extent | cell morphology (Vero cells [2]; 100 μM, added when cells were plated, not removed, 48 hrs): affected to a certain extent | cell morphology (Vero cells [2]; 12.5-100 μM for 1 hour on cells plated 24 hours, observed 24 hours later): not greatly affected | change of cell morphology (Vero cells [2]): do not induce a change cell morphology | maximum nontoxic concentration (Vero cells [2]): 75 µM | effect on the cells (Vero cells [2]): not significantly affected | % of death (Vero cells [3]; 12.5 μM): 10% | Dead cells (Vero cells [3]; 12.5 μM): 2.7E+06 | Live cells (Vero cells [3]; 12.5 μM): 2.56E+07 | % of death (Vero cells [3]; 25 μM): 10% | Dead cells (Vero cells [3]; 25 μM): 2.95E+06 | Live cells (Vero cells [3]; 25 μM): 2.72E+07 | % of death (Vero cells [3]; 50 μM): 10% | Dead cells (Vero cells [3]; 50 μM): 2.90E+06 | Live cells (Vero cells [3]; 50 μM): 2.89E+07 | % of death (Vero cells [3]; 75 μM): 10% | Dead cells (Vero cells [3]; 75 μM): 1.70E+06 | Live cells (Vero cells [3]; 75 μM): 2.71E+07 | maximum nontoxic concentration (Vero cells [3]; Vero cells): 75 µM | percentage of cell death (Vero cells [3]; increasing concentration, compared to control): not changed; also recorded: did not change much | reduction of HSV1 ability to form plaques (HSV1; 50 μM EGCG-ester and above, viral lysate dilution 10^−1 and 10^−2): > 99% | plaque (PFU) formation (HSV1; 50 μM and above): no plaques observed; also recorded: completely inhibits PFU formation | plaque formation (HSV1; 50 μM, viral lysate dilutions 10^−1 to 10^−7): no plaque formation
